Counter-ions that a name gives are not always drawn.

Assay [1] has as its system A549 cells. Nature of the assay: Inhibition of PGE2 production in A549 cell (IL-1β stimulated). It counts as cell-based, human. The conditions noted are these: IL-1β 5 ng/well, PGE2 in culture medium. Put shortly:
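After IL-1β (5 ng/well) stimulation for 24 h at 37 °C, following a 60-min compound pretreatment in RPMI with 3% FBS, medium PGE2 (HTRF) and PGF2α (EIA) from human A549 cells were quantified. 100% activity set as IL-1β-induced minus basal production; IC50 calculated.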

Assay [2] addresses human mPGES-1 (Homo sapiens (Human), UniProt O14684). Nature of the assay: mPGES-1 inhibiting activity (microsome fractions, PGE2 by HTRF). The following applies: microsomes from CHO-K1 cells transfected with human mPGES-1; PGH2 1 μM, 4° C., 60 seconds; read-out: mPGES-1 Inhibition IC50. It counts as biochemical. Put shortly: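 PGE2 formation read by HTRF after 60 s at 4 °C with 1 μM PGH2 substrate, following 20 min compound preincubation (1% DMSO) with human mPGES-1 microsomes from transfected CHO-K1 cells. Buffer: potassium phosphate, reduced glutathione, pH 7.4; IC50 from activity relative to enzyme-free blank.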
In general terms: In TR-FRET formats the signal depends on donor and acceptor labels being close together.

human mPGES-1, sequence (O14684 whole entry): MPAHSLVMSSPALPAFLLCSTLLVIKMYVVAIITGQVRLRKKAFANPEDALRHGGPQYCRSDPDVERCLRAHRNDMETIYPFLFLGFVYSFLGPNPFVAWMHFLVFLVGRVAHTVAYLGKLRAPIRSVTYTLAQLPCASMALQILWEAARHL

By IC50 is commonly meant the concentration that gives 50% inhibition. Turning to `COCc1nc2c(C(=O)Nc3cccc(Cl)c3C)cc(NC(=O)c3c(F)cccc3Br)cc2[nH]1` [Example 103, 6-{[(2-Bromo-6-fluorophenyl)carbonyl]amino}-N-(3-chloro-2-methylphenyl)-2-(methoxymethyl)-1H-benzimidazole-4-carboxamide hydrochloride], the IC50 in assay [1] (Homo sapiens, A549, 24 h) was found to be 59.6 nM; in assay [2], 2.8 nM.
For the molecule `Cc1c(Cl)cccc1NC(=O)c1cc(NC(=O)c2c(F)cccc2Cl)cc2[nH]c(N(C)C)nc12` [Example 182, 6-{[(2-Chloro-6-fluorophenyl)carbonyl]amino}-N-(3-chloro-2-methylphenyl)-2-(dimethylamino)-1H-benzimidazole-4-carboxamide hydrochloride], the IC50 amounted to 38.4 nM in assay [1] (Homo sapiens, A549, 24 h) and 1.6 nM in assay [2].
The matching figures for `Cc1c(Cl)cccc1NC(=O)c1cc(NC(=O)c2ccccc2C(F)(F)F)cc2[nH]c(Cl)nc12` [Example 135, 2-Chloro-N-(3-chloro-2-methylphenyl)-6-({[2-(trifluoromethyl)phenyl]carbonyl}amino)-1H-benzimidazole-4-carboxamide]: 87.3 nM and 0.3 nM.
In the case of `COCCOCc1nc2c(C(=O)Nc3cccc(Cl)c3C)cc(NC(=O)c3ccccc3C(F)(F)F)cc2[nH]1` [Example 74, N-(3-Chloro-2-methylphenyl)-2-[(2-methoxyethoxy)methyl]-6-({[2-(trifluoromethyl)phenyl]carbonyl}amino)-1H-benzimidazole-4-carboxamide hydrochloride], the IC50 in assay [1] (Homo sapiens, A549, 24 h) was determined as 10.4 nM; in assay [2] it was 71.3 nM.
The matching figures for `Cc1c(Cl)cccc1NC(=O)c1cc(NC(=O)c2ccccc2C(F)(F)F)cc2[nH]c(C3CN(C(=O)OC(C)(C)C)C3)nc12` [Example 61, tert-Butyl 3-{4-[(3-chloro-2-methylphenyl)carbamoyl]-6-({[2-(trifluoromethyl)phenyl]carbonyl}amino)-1H-benzimidazol-2-yl}azetidine-1-carboxylate]: 66.7 nM and 3.2 nM.
The matching figures for `Cc1c(Cl)cccc1NC(=O)c1cc(NC(=O)c2ccccc2C(F)(F)F)cc2[nH]c([S+](C)[O-])nc12` (stereo not shown) [Example 181, N-(3-Chloro-2-methylphenyl)-2-(methylsulfinyl)-6-({[2-(trifluoromethyl)phenyl]carbonyl}amino)-1H-benzimidazole-4-carboxamide]: 705 nM and 1.1 nM.
The matching figures for `Cc1c(Cl)cccc1NC(=O)c1cc(NC(=O)c2ccccc2C(F)(F)F)cc2[nH]c(NCC(=O)O)nc12` [Example 161, N-{4-[(3-Chloro-2-methylphenyl)carbamoyl]-6-({[2-(trifluoromethyl)phenyl]carbonyl}amino)-1H-benzimidazol-2-yl}glycine hydrochloride]: above 10000 nM and 3.8 nM.
In the case of `Cc1c(Cl)cccc1NC(=O)c1cc(NC(=O)c2ccccc2C(F)(F)F)cc2[nH]c(NCC(C)(C)CO)nc12` [Example 158, N-(3-Chloro-2-methylphenyl)-2-[(3-hydroxy-2,2-dimethylpropyl)amino]-6-({[2-(trifluoromethyl)phenyl]carbonyl}amino)-1H-benzimidazole-4-carboxamide hydrochloride], the IC50 in assay [1] (Homo sapiens, A549, 24 h) is 82.2 nM; in assay [2], 8.5 nM.
Taken in the same sequence, the figures for `COCc1nc2c(C(=O)Nc3ccc4c(c3)CCC4)cc(NC(=O)c3ccccc3C(F)(F)F)cc2[nH]1` [Example 33, N-(2,3-Dihydro-1H-inden-5-yl)-2-(methoxymethyl)-6-({[2-(trifluoromethyl)phenyl]carbonyl}amino)-1H-benzimidazole-4-carboxamide hydrochloride] were 33.6 nM and 3 nM.
For `CC(C)(C)c1nc2c(C(=O)NCc3ncccc3C(F)(F)F)cc(NC(=O)c3ccccc3C(F)(F)F)cc2[nH]1` [Example 77, 2-tert-Butyl-6-({[2-(trifluoromethyl)phenyl]carbonyl}amino)-N-{[3-(trifluoromethyl)pyridin-2-yl]methyl}-1H-benzimidazole-4-carboxamide dihydrochloride], the IC50 in assay [1] (Homo sapiens, A549, 24 h) was determined as 32.9 nM; in assay [2] it was 1.7 nM.
The matching figures for `Cn1cnc2c(C(=O)NCc3ccccc3C(F)(F)F)cc(NC(=O)c3ccccc3C(F)(F)F)cc21` [Example 48, 1-Methyl-N-[2-(trifluoromethyl)benzyl]-6-({[2-(trifluoromethyl)phenyl]carbonyl}amino)-1H-benzimidazole-4-carboxamide]: 146 nM and 49.9 nM.
The matching figures for `COCc1nc2c(C(=O)NCc3ccccc3Cl)cc(NC(=O)c3ccccc3C(F)(F)F)cc2[nH]1` [Example 24, N-(2-Chlorobenzyl)-2-(methoxymethyl)-6-({[2-(trifluoromethyl)phenyl]carbonyl}amino)-1H-benzimidazole-4-carboxamide hydrochloride]: 751 nM and 10.5 nM.
The matching figures for `COCc1nc2c(C(=O)Nc3cccc(Cl)c3C)cc(NC(=O)c3cc(F)ccc3Cl)cc2[nH]1` [Example 94, 6-{[(2-Chloro-5-fluorophenyl)carbonyl]amino}-N-(3-chloro-2-methylphenyl)-2-(methoxymethyl)-1H-benzimidazole-4-carboxamide hydrochloride]: 182 nM and 9.1 nM.
Take `Cc1c(Cl)cccc1NC(=O)c1cc(NC(=O)c2ccccc2C(F)(F)F)cc2[nH]c(N3CC[C@H](N(C)C)C3)nc12` [Example 149, N-(3-Chloro-2-methylphenyl)-2-[(3S)-3-(dimethylamino)pyrrolidin-1-yl]-6-({[2-(trifluoromethyl)phenyl]carbonyl}amino)-1H-benzimidazole-4-carboxamide dihydrochloride]: the half-maximal inhibitory concentration (IC50) turned out to be 43.3 nM in assay [1] (Homo sapiens, A549, 24 h) and 1 nM in assay [2].
Taken in the same sequence, the figures for `CCOCc1nc2c(C(=O)NCc3ncccc3C(F)(F)F)cc(NC(=O)c3ccccc3C(F)(F)F)cc2[nH]1` [Example 80, 2-(Ethoxymethyl)-6-({[2-(trifluoromethyl)phenyl]carbonyl}amino)-N-{[3-(trifluoromethyl)pyridin-2-yl]methyl}-1H-benzimidazole-4-carboxamide dihydrochloride] were 1250 nM and 29.4 nM.
The matching figures for `CCN(CC)CCNc1nc2c(C(=O)Nc3cccc(Cl)c3C)cc(NC(=O)c3ccccc3C(F)(F)F)cc2[nH]1` [Example 151, N-(3-Chloro-2-methylphenyl)-2-{[2-(diethylamino)ethyl]amino}-6-({[2-(trifluoromethyl)phenyl]carbonyl}amino)-1H-benzimidazole-4-carboxamide hydrochloride]: 328 nM and 11.6 nM.
Taken in the same sequence, the figures for `COCc1nc2c(C(=O)Nc3c(C)cccc3Cl)cc(NC(=O)c3ccccc3C(F)(F)F)cc2[nH]1` [Example 43, N-(2-Chloro-6-methylphenyl)-2-(methoxymethyl)-6-({[2-(trifluoromethyl)phenyl]carbonyl}amino)-1H-benzimidazole-4-carboxamide hydrochloride] were 438 nM and 70.7 nM.
With `COCc1nc2c(C(=O)Nc3cccc(Cl)c3C)cc(NC(=O)c3cc(OCCOC(C)C)ccc3Cl)cc2[nH]1` [Example 114, N-(3-Chloro-2-methylphenyl)-6-[({2-chloro-5-[2-(propan-2-yloxy)ethoxy]phenyl}carbonyl)amino]-2-(methoxymethyl)-1H-benzimidazole-4-carboxamide hydrochloride], the IC50 in assay [1] (Homo sapiens, A549, 24 h) worked out at 8.8 nM; in assay [2] it was 3.5 nM.
With `Cc1c(Cl)cccc1NC(=O)c1cc(NC(=O)c2ccccc2C(F)(F)F)cc2[nH]c(C3CCCO3)nc12` (stereo in doubt) [Example 66, N-(3-Chloro-2-methylphenyl)-2-[(2S)-tetrahydrofuran-2-yl]-6-({[2-(trifluoromethyl)phenyl]carbonyl}amino)-1H-benzimidazole-4-carboxamide hydrochloride], the IC50 in assay [1] (24 hours, hydrochloride) stood at 57.3 nM; in assay [2] it was 9.9 nM.
With `COCc1nc2c(C(=O)Nc3cccc(C#N)c3C)cc(NC(=O)c3ccccc3C(F)(F)F)cc2[nH]1` [Example 41, N-(3-Cyano-2-methylphenyl)-2-(methoxymethyl)-6-({[2-(trifluoromethyl)phenyl]carbonyl}amino)-1H-benzimidazole-4-carboxamide], the IC50 worked out at 145 nM in assay [1] (Homo sapiens, A549, 24 h) and 52.5 nM in assay [2].
As for `COCc1nc2c(C(=O)Nc3c(F)cccc3F)cc(NC(=O)c3ccccc3C(F)(F)F)cc2[nH]1` [Example 40, N-(2,6-Difluorophenyl)-2-(methoxymethyl)-6-({[2-(trifluoromethyl)phenyl]carbonyl}amino)-1H-benzimidazole-4-carboxamide], the IC50 in assay [1] (Homo sapiens, A549, 24 h) was found to be 300 nM; in assay [2] it was 194 nM.
Taken in the same sequence, the figures for `COCc1nc2c(C(=O)NC3CCCCC3)cc(NC(=O)c3ccccc3C(F)(F)F)cc2[nH]1` [Example 20, N-Cyclohexyl-2-(methoxymethyl)-6-({[2-(trifluoromethyl)phenyl]carbonyl}amino)-1H-benzimidazole-4-carboxamide] were 98 nM and 5.6 nM.
The matching figures for `COCc1nc2c(C(=O)Nc3ccccc3Cc3ccccc3)cc(NC(=O)c3ccccc3C(F)(F)F)cc2[nH]1` [Example 229, N-(2-Benzylphenyl)-2-(methoxymethyl)-6-({[2-(trifluoromethyl)phenyl]carbonyl}amino)-1H-benzimidazole-4-carboxamide hydrochloride]: 39 nM and 2.3 nM.
